Here are results for one molecule from publication PMC2784364, “VX-166: a novel potent small molecule caspase inhibitor as a potential therapy for sepsis” (Critical Care, 2009).

The subject of test [1] is IL-18 release from peripheral blood mononuclear cells. Put plainly: IL-18 release from SAC-treated PBMC. The note with it: overnight. It is filed as cell-based. The procedure:
Peripheral blood mononuclear cells (PBMC) from healthy donors were isolated by Ficoll-Paque gradient centrifugation from buffy coats obtained from the National Blood Transfusion Service (Bristol, UK). For IL-1β release, 5 × 10^5 cells/ml were then stimulated with 50 ng/ml lipopolysaccharide (LPS) from Escherichia coli (Sigma-Aldrich Ltd., Poole, UK) in the presence or absence of VX-166 and incubated for 18 hours. Secretion of IL-1β into the supernatant was determined by ELISA (R&D Systems, Abingdon, UK) following the manufacturer's instructions. For IL-18 release, 7.5 × 10^5 cells/ml were stimulated with 6.25 × 10^-4% (w/v) Staphylococcus aureus cell suspension (SAC; Sigma-Aldrich Ltd., Poole, UK) in the presence or absence of VX-166 and incubated overnight. The IL-18 content in the supernatants was quantified by ELISA (Caltag-MedSystems Ltd., Buckingham, UK) following the manufacturer's instructions. In both assays PBMC viability was assessed after the 18 hours incubation time using MTS assay (Promega UK Ltd., Southampton, UK) to ensure that the reduction in cytokine release was not caused by a cytotoxic effect of the compound.

The subject of test [2] is CD-1 mice. Put plainly: Endotoxic shock in the mouse (LPS 20 mg/kg iv), survival. Type of test: in vivo. As to the method:
Endotoxic shock studies were approved by the Vertex Pharmaceuticals Institutional Animal Care and Use Committee. Adult male CD-1 mice (weighing 30 to 32 g; Charles River Laboratories, Wilmington, MA, USA) were administered LPS (from E. coli serotype 0111:B4, Sigma-Aldrich, St. Louis, MO, USA) at 20 mg/kg iv and survival was monitored for 96 hours (n = 28 per group). VX-166 or vehicle (10% propylene glycol: 90% sodium phosphate buffer pH 8) were administered by repeat iv bolus at 0 hours (co-injection with LPS), 4, 8 and 12 hours post-LPS. VX-166 was administered at 1, 3, 10 or 30 mg/kg.

Test [3] deals with thymocytes. Kind of test: CLP rat, thymocyte apoptosis by flow cytometry. The settings on record: 20 hours, 25 mg/ml pump, n = 10. Type of test: in vivo. The procedure: CLP studies were performed in accordance with the National Institutes of Health guidelines for the use of experimental animals and were approved by the Institutional Animal Care and Use Committee of the Feinstein Institute for Medical Research. Adult male Sprague-Dawley rats (weighing 275 to 325 g, Charles River Laboratories, Wilmington, MA, USA) were fasted overnight then anaesthetised with isoflurane. The caecum was exposed via a 2 cm midline incision. It was ligated just distal to the ileocaecal valve, then punctured twice with an 18-gauge needle and gently squeezed to release a small amount of faecal material to ensure patency of the perforation sites before the abdominal incision was closed. Sham-operated rats underwent the same procedure with the exception that the caecum was neither ligated nor punctured. Animals received subcutaneous fluids (30 ml/kg saline) immediately after the procedure. No antibiotics were administered. In the 7 and 10 day survival studies animals were re-anaesthetised 20 hours after CLP, the perforated caecum was removed and the abdominal cavity washed twice with 40 ml of warm, sterilised saline. The abdominal cavity was closed, anaesthetics withdrawn and rats returned to their cages where they were allowed free access to food and water. In the 20 hour endpoint study the caecum was not removed. […]
Rat PBMC were isolated from heparinised blood by Ficoll Paque (GE Healthcare Bio-Sciences Corp., Piscataway, NJ, USA) density gradient centrifugation and washed three times with PBS (Invitrogen, Carlsbad, CA, USA). […] Cells were then washed twice in PBS, counted and reconstituted in Ca^2+-rich Annexin-V binding buffer (BD Biosciences, San Jose, CA, USA) at a concentration of 1 × 10^7 cells/ml. […] Cells were then analysed by flow cytometry with the FACS-Calibur (BD Biosciences, San Jose, CA, USA) and percentages of viable (Annexin-V^-/PI^-), early apoptotic (Annexin-V^+/PI^-), late apoptotic (Annexin-V^+/PI^+) and necrotic (Annexin-V^-/PI^+) cells were determined.
A general note: Flow cytometry measures light scatter and fluorescence of single cells or particles in a stream.

“Also recorded” adds a separate entry of the source. Read-outs that look alike come from different tables or passages of the source.

For the molecule `CCC(C(=O)NC(CC(=O)O)C(=O)COc1c(F)c(F)cc(F)c1F)n1cccc(NC(=O)OC)c1=O` (centres unmarked) [VX-166], in test [1] (Homo sapiens, PBMC, n = 4, read-out: IC50 ± SD, inhibition of IL-18 release), the IC50 (as a rule, the concentration needed to halve the response being measured) is less than 500 nM. Also, the IC50 in test [1] (SAC-treated human PBMC, n = 4, read-out: IC50 ± SD, inhibition of IL-18 release) was 450 ± 170 nM. Further, the “survival rate at 96 hours compared with vehicle control” value in test [2] (LPS 20 mg/kg iv, 30 mg/kg iv at 0, 4, 8, 12 hours) is “more than doubled”. Also, the “survival over 96 hours” value in test [2] (LPS 20 mg/kg iv, 1, 3, 10 or 30 mg/kg repeat iv bolus at 0, 4, 8 and 12 hours post-LPS, vs vehicle) is given as “significantly improved survival in a dose-dependent fashion”. In addition, the “survival compared with vehicle control, second study” value in test [2] (different batch of LPS, 30 mg/kg iv at 0, 4, 8, 12 hours, P < 0.0001) is “substantially improved survival”. In test [3], the “level of necrotic thymocytes between groups” value was “remained unchanged”; the “percentage of early apoptotic thymocytes vs vehicle CLP group” value was “significantly inhibited thymic atrophy and lymphocyte apoptosis; also recorded: reduced the percentage of early apoptotic thymocytes”; the “percentage of viable thymocytes vs vehicle CLP group” value is reported as “significantly increased the percentage of viable cells”.
